The record followed here is patent US20190367963A1, “METHOD FOR SELECTING ODOR CONTROL SUBSTANCE” (KAO CORPORATION, priority 2017, published 2019).

Experiment [1] is described as follows: Sensory examination: PEA detection threshold value before and after nasal administration. The experiment is classed as in vivo. To be noted: 10 mM in saline, nasal spray, human examinees, one minute after spraying. How it is done:
The action of 1-arginine, which is an OR2W1 selective ligand, on olfaction was evaluated by sensory examination. Three samples, saline (Otsuka Pharmaceutical Co., Ltd.), saline aqueous solution containing 10 mM 1-arginine, and saline aqueous solution containing 10 mM 1-histidine, were prepared and filled into nasal sprays (KT110-102, AS ONE Corporation). […] PEA aqueous solutions with 11 different concentrations from 0.001 to 100 WA were prepared as test solutions, and 3 mL of each of the solutions was respectively added to 20-mL glass vials (Maruemu Corporation).
The experiment was blinded to both an examiner and an examinee. The examiner set the spray spout in the nasal cavity of the examinee as deep as possible and sprayed once. The amount of liquid ejected thereby was about 100 to 200 μL. […] The concentration that gave a correct answer three consecutive times after answering an incorrect answer was determined as the detection threshold value. […] Before and after the nasal administration of a sample, detection threshold values of an examinee to PEA were measured. The rate of change in the threshold value was determined by calculating (threshold value concentration before sample nasal administration)/(threshold value concentration after sample nasal administration).

In a further experiment the target is T1, OR2W1 (Homo sapiens, UniProt Q9Y3N9).
T1 construct: expressed in transfected cells; host or cells: HEK293
T1 sequence (Q9Y3N9 1-320): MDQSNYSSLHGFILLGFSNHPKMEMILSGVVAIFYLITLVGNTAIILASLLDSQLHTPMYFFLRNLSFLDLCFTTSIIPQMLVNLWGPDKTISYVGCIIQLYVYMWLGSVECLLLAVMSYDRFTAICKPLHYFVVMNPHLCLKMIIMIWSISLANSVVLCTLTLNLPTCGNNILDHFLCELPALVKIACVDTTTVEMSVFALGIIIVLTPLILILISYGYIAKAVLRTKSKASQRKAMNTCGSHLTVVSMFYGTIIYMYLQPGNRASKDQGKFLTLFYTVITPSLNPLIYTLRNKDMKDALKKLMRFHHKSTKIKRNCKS
Briefly: Luciferase reporter gene assay of OR2W1 expressing HEK293 cells. The class given is cell-based. From the text:
(§1) Based on the sequence information registered in GenEank, genes encoding 427 human olfactory receptors including variants were each cloned. Each gene was cloned by PCR using human genomic DNA female (G1521: Promega) as the template. Each gene amplified by PCR was recombined downstream of a Flag-Rho tag sequence on a pME18S vector.
(§2) A gene encoding human RTP1S was inserted into the EcoRI/XhoI site of a pME18S vector.
427 HEK293 cells differently expressing one of 427 human olfactory receptors were produced. Reaction solutions having compositions shown in Table 1 were prepared and were left to stand in a clean bench for 15 minutes. The reaction solutions were added to each well of a multi-well plate (384 or 96-well plate, BioCoat), and HEK293 cells were then seeded. In the 384-well plate, 4.4 μL of a reaction solution and 40 μL of HEK293 cells (20×10^4 cells/cm^2) were added. In the 96-well plate, 10 μL of a reaction solution and 90 μL of HEK293 cells (3×10^5 cells/cm^2) were added. The cells were cultured in an incubator maintained at 37° C. and 5% CO2 for 24 hours. As a control, cells not expressing an olfactory receptor (mock) were prepared.
The olfactory receptor expressed in HEK293 cells interact with endogenous cellular Gas to activate adenylate cyclase and thereby increases the intracellular cAMP level. The measurement of the response of cells to an odorant, test substance, or antagonist in the present invention was performed by a luciferase reporter gene assay monitoring the increase in the intracellular cAMP level as a light emission value derived from a firefly luciferase gene (fluc2P-CRE-hygro). A Renilla luciferase gene fused to downstream of a CMV promoter (hRluc-CMV) was simultaneously transfected and was used as an internal standard for calibrating the error in gene transfer efficiency or the number of cells. The luciferase activity was measured from 2.5 to 4 hours after stimulation with an odorant or a test substance with a Dual-Glo™ luciferase assay system (Promega), following user's manual thereof. The value fLuc/hRluc was calculated by dividing the light emission value derived from firefly luciferase by the light emission value derived from Renilla luciferase. “Fold increase” as an indicator of the responsiveness of an olfactory receptor to stimulation with a test substance, and “odor response” (%) as an indicator of the activity level of an antagonist to the olfactory receptor, were calculated according to the following formula: […]
X: fLuc/hRluc, induced by stimulation with a test substance alone, and
Y: fLuc/hRluc, without stimulation with a test substance.
L-Arginine and 1-histidine were used as test substances. […]
(In general: Reporter assays use an easily measured gene product as a stand-in for the process of interest.)

Experiment [2] in a line: Sensory examination: odor intensity (labeled magnitude scale) on simultaneous exposure to odorant and test substance. The class given is in vivo, human. To be noted: test substance 10 mM in saline, ultrasonic nebulizer, LMS; for odor intensity of HCA used together with test substance: HCA 0.1 mM; for odor intensity of PEA used together with test substance: PEA 0.1 mM. The protocol:
Whether the odor of an odorant was enhanced or not by simultaneous exposure to the odorant and 1-arginine was investigated by comparing with exposure to the odorant alone. PEA or hexyl cinnamic aldehyde (HCA) was used as the odorant. The odorant was added at a final concentration of 0.1 mM to a saline aqueous solution with 1-arginine (10 mM) and a saline aqueous solution with 1-histidine (10 mM) as a control. The resulting solutions were sprayed to an examinee for inhaling using an ultrasonic nebulizer (NE-U07: OMRON Corporation, atomization particle diameter: 1 to 8 μm (80% of total volume particle diameter distribution)) with a spray amount of about 170 μL (for about 20 seconds) at most, and odor intensity was evaluated.
The odor intensity was evaluated according to the method of Green, et al, (Chemical senses, 1996, 21: 323-34) with the labeled magnitude scale (LMS) shown below. That is, assuming the full scale length was 100%, labels were set to the following positions: Barely detectable: 1.4%, Weak: 6.1%, Moderate: 17.2%, Strong: 35.4%, Very strong: 53.3%, Strongest imaginable: 100%.

Experiment [3] has as its system 427 human olfactory receptors. As to the kind of experiment: Luciferase reporter gene assay of 427 human olfactory receptors expressed in HEK293 cells. The class given is cell-based. To be noted: test substance 10 mM.
Excerpt: as §1, §2
427 HEK293 cells differently expressing one of 427 human olfactory receptors were produced. Reaction solutions having compositions shown in Table 1 were prepared and were left to stand in a clean bench for 15 minutes. The reaction solutions were added to each well of a multi-well plate (384 or 96-well plate, BioCoat), and HEK293 cells were then seeded. […]
The olfactory receptor expressed in HEK293 cells interact with endogenous cellular Gas to activate adenylate cyclase and thereby increases the intracellular cAMP level. […] The luciferase activity was measured from 2.5 to 4 hours after stimulation with an odorant or a test substance with a Dual-Glo™ luciferase assay system (Promega), following user's manual thereof. The value fLuc/hRluc was calculated by dividing the light emission value derived from firefly luciferase by the light emission value derived from Renilla luciferase. […]

As to `N=C(N)NCCC[C@H](N)C(=O)O` [1-arginine, L-Arginine], the “PEA detection threshold value after nasal administration” value in experiment [1] is “decreased in statistically significant manner”. The “response of OR2W1 expressing cells” value on OR2W1 is on record as “responded to 1-arginine concentration dependently”. For the same compound, in experiment [2], the “odor intensity of HCA used together with test substance” value is recorded as “enhanced in statistically siggificant manner” and the “odor intensity of PEA used together with test substance” value is given as “enhanced in statistically siggificant manner”. Further, the “responses of 427 olfactory receptors” value in experiment [3] is given as “no olfactory receptors other than OR2W1 responded”.
In the case of `N[C@@H](Cc1c[nH]cn1)C(=O)O` [1-histidine, L-Histidine], the “PEA detection threshold value after nasal administration” value in experiment [1] was “not observed”. On OR2W1, the “response of OR2W1 expressing cells” value is given as “did not respond”. Also, in experiment [2], the “odor intensity of HCA used together with test substance” value is reported as “the effect of enhancing the odor intensity was not observed” and the “odor intensity of PEA used together with test substance” value is listed as “the effect of enhancing the odor intensity was not observed”. In addition, in experiment [3], the “responses of 427 olfactory receptors” value was “did not respond”.
With `CCCCCCC(C=O)=Cc1ccccc1` [HCA, 2-(phenylmethylidene)octanal], the “response of OR2W1 expressing cells” value on OR2W1 was “did not respond”.
On to `OCCc1ccccc1` [PEA, 2-phenylethanol], for which the “response of OR2W1 expressing cells” value at OR2W1 is given as “responded”.
